Measured values from ChEMBL document CHEMBL1158576, “Coumabiocins A-F, aminocoumarins from an organic extract of Streptomyces sp. L-4-4” (2010).
Calls of active or inactive are those of the source. The calls are words filed in the database; no cut-off is given here.

Legend:
Streptomyces [1] = experiment: Growth inhibition in Streptomyces 85E at 2.5 ug/disk by hyphae formation inhibition assay; assay type: functional, organism-based
Streptomyces [2] = experiment: Growth inhibition in Streptomyces 85E assessed as clear zone of inhibition at 20 ug/disk by hyphae formation inhibition assay; assay type: functional; conditions: read-out: IZ
Streptomyces [3] = experiment: Growth inhibition in Streptomyces 85E at 5 ug/disk by hyphae formation inhibition assay; assay type: functional, organism-based
Streptomyces [4] = experiment: Growth inhibition in Streptomyces 85E at 10 ug/disk by hyphae formation inhibition assay; assay type: functional, organism-based
Streptomyces [5] = experiment: Growth inhibition in Streptomyces 85E assessed as clear zone of inhibition at 10 ug/disk by hyphae formation inhibition assay; assay type: functional; conditions: read-out: IZ
Streptomyces [6] = experiment: Growth inhibition in Streptomyces 85E assessed as bald phenotype around disk at 2.5 ug/disk by hyphae formation inhibition assay; assay type: functional; conditions: read-out: IZ
Streptomyces [7] = experiment: Growth inhibition in Streptomyces 85E assessed as clear zone of inhibition at 5 ug/disk by hyphae formation inhibition assay; assay type: functional; conditions: read-out: IZ
Streptomyces [8] = experiment: Growth inhibition in Streptomyces 85E assessed as bald phenotype around disk at 5 ug/disk by hyphae formation inhibition assay; assay type: functional; conditions: read-out: IZ
Streptomyces [9] = experiment: Growth inhibition in Streptomyces 85E assessed as bald phenotype around disk at 20 ug/disk by hyphae formation inhibition assay; assay type: functional; conditions: read-out: IZ
Streptomyces [10] = experiment: Growth inhibition in Streptomyces 85E assessed as bald phenotype around disk at 10 ug/disk by hyphae formation inhibition assay; assay type: functional; conditions: read-out: IZ
Streptomyces [11] = experiment: Growth inhibition in Streptomyces 85E at 20 ug/disk by hyphae formation inhibition assay; assay type: functional, organism-based

SMILES | inhibition zone (IZ) (Streptomyces [1]) | zone of inhibition at 20 µg/disc (Streptomyces [2]) [mm] | inhibition zone (IZ) (Streptomyces [3]) | inhibition zone (IZ) (Streptomyces [4]) | zone of inhibition at 10 µg/disc (Streptomyces [5]) [mm] | zone of inhibition at 2.5 µg/disc (Streptomyces [6]) [mm] | zone of inhibition at 5 µg/disc (Streptomyces [7]) [mm] | zone of inhibition at 5 µg/disc (Streptomyces [8]) [mm] | zone of inhibition at 20 µg/disc (Streptomyces [9]) [mm] | zone of inhibition at 10 µg/disc (Streptomyces [10]) [mm] | inhibition zone (IZ) (Streptomyces [11])
CO[C@@H]1[C@@H](OC(N)=O)[C@@H](O)[C@H](Oc2ccc3c(O)c(NC(=O)c4ccc5c(c4)CC(C(C)(C)O)O5)c(=O)oc3c2C)OC1(C)C (some centres not stated) [COUMABIOCIN A] | inactive | 13 | inactive | inactive |  |  |  |  |  |  | 
CO[C@@H]1[C@@H](OC(N)=O)[C@@H](O)[C@H](Oc2ccc3c(O)c(NC(=O)c4ccc5c(c4)CCC(C)(C)O5)c(=O)oc3c2C)OC1(C)C [COUMABIOCIN C] | inactive | 15 | inactive |  | 10 |  |  |  |  |  | 
CO[C@@H]1[C@@H](OC(N)=O)[C@@H](O)[C@H](Oc2ccc3c(O)c(NC(=O)c4ccc5c(c4)CC(O)C(C)(C)O5)c(=O)oc3c2C)OC1(C)C (some centres not stated) [COUMABIOCIN D] | inactive | 10 | inactive | inactive |  |  |  |  |  |  | 
CO[C@@H]1[C@@H](OC(N)=O)[C@@H](O)[C@H](Oc2ccc3c(O)c(NC(=O)c4ccc(O)c(CC=C(C)C)c4)c(=O)oc3c2C)OC1(C)C [NOVOBIOCIN] |  | 20 |  |  | 18 | 18 | 15 |  |  |  | 
C=C(C)C(O)Cc1cc(C(=O)Nc2c(O)c3ccc(O[C@@H]4OC(C)(C)[C@H](OC)[C@@H](OC(N)=O)[C@H]4O)c(C)c3oc2=O)ccc1O (some centres not stated) [COUMABIOCIN E] | inactive | 11 | inactive | inactive |  |  |  |  |  |  | 
CO[C@@H]1[C@@H](OC(N)=O)[C@@H](O)[C@H](Oc2ccc3c(O)c(NC(=O)c4ccc5c(c4)CC(C(C)C)O5)c(=O)oc3c2C)OC1(C)C (some centres not stated) [COMABIOCIN B] | inactive | 14 |  |  | 12 |  |  | 10 |  |  | 
CO[C@@H]1[C@@H](O)[C@@H](OC(N)=O)[C@H](Oc2ccc3c(O)c(NC(=O)c4ccc(O)c(CC=C(C)C)c4)c(=O)oc3c2C)OC1(C)C [ISONOVOBIOCIN] | inactive |  | inactive |  |  |  |  |  | 10 | 9 | 
C=C(C)C(O)Cc1cc(C(=O)Nc2c(O)c3ccc(O)c(C)c3oc2=O)ccc1O (configuration not stated) | inactive |  | inactive | inactive |  |  |  |  |  |  | inactive
